Measurements from US20050070552A1, “Ion channel modulating activity I” (Cardiome Pharma Corp., priority 2003, published 2005).
Where two headings read alike, the source gives them in different places.

Legend:
[1] = biological target: human heart sodium channels (hH1) (Homo sapiens, UniProt Q14524); format: cell-based
[2] = format: in vivo, rabbit
Procedure: Briefly, continuous infusion of COMPOUND A was administered prior to continuous infusion of methoxamine and followed by clofilium. The incidence of TdP (the number of animals in which TdP occurred) was compared to experiments in which COMPOUND A was not infused.
The following procedure was used: (1) Female NZW rabbits were weighed and anaesthetised initially with 35 mg/kg sodium pentobarbital via ear vein (60 mg/mL) using a sterile 23G 3/4 needle. Additional doses (in increments of 0.2-0.3 mL) were used if required to attain and maintain sufficient anaesthesia as determined by abolishment of eyelid reflex. Care was taken not to over anaesthetize as this could cause respiratory and cardiac arrest. (2) The anaesthetised rabbit was placed on a rabbit restraining board in the supine position and limbs were tied down. (3) The fur in the neck and inguinal region were wetted with water and trimmed down to the skin with scissors to facilitate dissection. Fur was placed in a water-filled beaker to prevent fur from becoming airborne. (4) The left or right femoral artery was cannulated with PE 50 tubing and attached to a pressure transducer to monitor blood pressure. (5) The right and left jugular veins were cannulated using PE-90 tubing for drug delivery via an infusion pump. (6) The left or right femoral vein was cannulated using PE-50 tubing for drug delivery via an infusion pump. (7) ECG leads were attached as follows: the ground lead was inserted subcutaneously into the femoral vein region; one lead was inserted subcutaneously near the apex of the heart and the third lead was placed in the open surgical area near the right jugular vein. (8) Control recordings of ECG and blood pressure were taken for 5 minutes to observe pre-drug effects. Recordings were continued throughout the entire experiment. (9) Arterial K^+ concentration was measured with the hand-held I-STAT blood-gas analyzer prior to infusion of arrhythmogenic agent and at the end of the experiment. […] Infusion was continued throughout the experiment. (11) After a further 5 minutes, methoxamine was administered at 20 μg/kg/min via the femoral vein. Methoxamine infusion was also continued throughout the experiment. (12) 10 minutes following the start of methoxamine infusion, clofilium was infused via a jugular vein. (13) In COMPOUND A-pretreated animals and controls, recording continued for 15 minutes regardless of whether TdP is seen or not. (14) A blood sample was collected when the experimental endpoint was reached, immediately after the infusion pumps were stopped.
COMPOUND A was applied and examined as described. To analyze the data, the parameters measured are (1) incidence of TdP (2) duration of TdP episodes (3) arterial K^+ concentration, (4) PR, QRS and QTc intervals during normal sinus rhythm (until arrhythmias begin and determination is no longer possible), (5) BP, and (6) HR.

rabbit Purkinje fibers [3] = test: Action potential duration in rabbit Purkinje fibers; format: cell-based; settings: n=10
Procedure: A midline thoracotomy was performed and the heart was excised as practised by those skilled in the art. […] The heart was perfused with standard bicarbonate buffered Krebs' solution known to those skilled in the art. An electrode was pulled from thin-walled filamented borosilicate glass capillary tubes having a resistance of 10 to 30 megaohms when filled with 3 M KCl. The electrode was attached to headstage mounted on an Axoclamp 2A amplifier (or a similar amplifier known to those skilled in the art). The microelectrode was brought down upon an exposed Purkinje fiber using a micromanipulator and the position was adjusted until the electrode penetrated a single Purkinje cell. The Purkinje fiber network was stimulated using a biphasic stimulation pulse and subsequent action potentials were recorded for analysis.

rabbit Purkinje fibers [4] = settings: cited from earlier work
hH1 sodium channel = biological target: T1, hH1 sodium channel (Homo sapiens, UniProt Q14524); test: Inactivated state inhibition of hH1 sodium channel current (prepulse protocol); format: cell-based
T1 construct: expressed in transfected cells; host or cells: HEK293
T1 sequence (Q14524 whole entry): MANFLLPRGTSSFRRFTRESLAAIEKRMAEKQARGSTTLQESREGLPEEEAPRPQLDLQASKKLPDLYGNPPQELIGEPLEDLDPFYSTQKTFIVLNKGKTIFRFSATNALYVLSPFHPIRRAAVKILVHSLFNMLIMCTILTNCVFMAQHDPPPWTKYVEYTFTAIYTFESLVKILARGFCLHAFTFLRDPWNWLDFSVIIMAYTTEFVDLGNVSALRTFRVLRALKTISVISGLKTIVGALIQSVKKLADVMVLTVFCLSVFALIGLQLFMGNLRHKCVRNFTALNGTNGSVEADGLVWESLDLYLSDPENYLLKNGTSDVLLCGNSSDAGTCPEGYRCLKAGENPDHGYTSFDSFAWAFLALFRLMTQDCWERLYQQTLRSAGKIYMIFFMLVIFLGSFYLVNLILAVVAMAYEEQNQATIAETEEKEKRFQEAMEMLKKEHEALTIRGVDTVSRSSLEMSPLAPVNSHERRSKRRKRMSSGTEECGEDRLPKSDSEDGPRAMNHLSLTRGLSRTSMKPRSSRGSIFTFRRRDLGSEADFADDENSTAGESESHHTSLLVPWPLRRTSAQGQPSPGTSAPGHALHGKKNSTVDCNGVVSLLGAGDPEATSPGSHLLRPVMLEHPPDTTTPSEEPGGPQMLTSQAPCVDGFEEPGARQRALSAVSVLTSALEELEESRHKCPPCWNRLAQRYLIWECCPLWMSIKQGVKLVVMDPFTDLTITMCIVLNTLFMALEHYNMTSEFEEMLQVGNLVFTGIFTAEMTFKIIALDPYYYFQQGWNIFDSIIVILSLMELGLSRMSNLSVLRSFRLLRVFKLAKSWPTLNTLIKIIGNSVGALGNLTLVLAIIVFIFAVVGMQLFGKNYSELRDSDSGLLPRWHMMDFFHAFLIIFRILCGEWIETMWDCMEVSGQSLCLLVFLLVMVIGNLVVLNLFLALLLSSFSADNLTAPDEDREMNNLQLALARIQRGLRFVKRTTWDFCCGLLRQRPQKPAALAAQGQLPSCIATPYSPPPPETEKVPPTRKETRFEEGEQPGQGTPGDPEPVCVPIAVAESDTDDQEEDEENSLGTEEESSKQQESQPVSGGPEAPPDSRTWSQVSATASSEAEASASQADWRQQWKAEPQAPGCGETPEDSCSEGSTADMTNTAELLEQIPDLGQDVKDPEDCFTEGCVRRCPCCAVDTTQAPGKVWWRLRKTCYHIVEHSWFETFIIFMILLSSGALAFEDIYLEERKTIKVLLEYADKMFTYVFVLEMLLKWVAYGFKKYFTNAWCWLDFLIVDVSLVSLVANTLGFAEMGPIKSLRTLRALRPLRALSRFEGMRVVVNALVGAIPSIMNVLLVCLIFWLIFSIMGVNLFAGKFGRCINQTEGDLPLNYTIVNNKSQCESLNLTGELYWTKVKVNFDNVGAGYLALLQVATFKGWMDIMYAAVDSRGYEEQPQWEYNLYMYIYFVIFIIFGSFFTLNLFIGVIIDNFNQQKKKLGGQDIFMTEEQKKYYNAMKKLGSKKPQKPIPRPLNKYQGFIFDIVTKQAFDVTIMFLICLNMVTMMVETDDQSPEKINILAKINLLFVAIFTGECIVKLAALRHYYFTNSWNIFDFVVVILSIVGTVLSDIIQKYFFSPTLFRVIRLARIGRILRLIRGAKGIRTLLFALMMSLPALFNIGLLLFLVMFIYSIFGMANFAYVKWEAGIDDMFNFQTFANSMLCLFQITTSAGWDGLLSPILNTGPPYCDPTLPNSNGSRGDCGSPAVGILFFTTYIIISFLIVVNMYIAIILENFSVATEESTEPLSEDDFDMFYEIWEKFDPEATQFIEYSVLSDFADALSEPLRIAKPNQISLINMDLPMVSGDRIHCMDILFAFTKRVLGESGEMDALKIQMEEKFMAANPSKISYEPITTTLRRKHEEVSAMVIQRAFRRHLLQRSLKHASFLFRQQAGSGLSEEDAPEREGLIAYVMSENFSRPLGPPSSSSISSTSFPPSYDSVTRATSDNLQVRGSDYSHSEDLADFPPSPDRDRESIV

[5] = tested on: isolated rabbit Purkinje fibers; settings: 100 μM
[6] = methoxamine plus clofilium, no pretreatment
[7] = 300 nM dofetilide in the presence of DMSO

human heart sodium channels (hH1), sequence (Q14524 whole entry, looked up): as the sequence (Q14524 whole entry) above

## NC1=N[C@H](O)[C@H]2[C@H]3O[C@]4(O)O[C@@H]([C@@H](O)[C@@]2(N1)[C@@H]4O)[C@]3(O)CO [TTX, tetrodotoxin]
[1]
  block of unsubtracted Iearly: completely

## CCCCCCC[N+](CC)(CC)CCCCc1ccc(Cl)cc1 [clofilium]
[2]; methoxamine 20 μg/kg/min plus clofilium 300 nmol/kg/min, no pretreatment
  TdP incidence (animals): 7 of 9
[2]; methoxamine and clofilium without any pretreatment
  increase in QTc interval 2.5 minutes after starting clofilium: 20±11%
[2]; [6]
  cumulative dose of clofilium at TdP: 1.4 ± 0.2 mg/kg
  time to TdP after starting clofilium infusion: 7.0 ± 1.3 min
  time to first PVC after starting clofilium infusion: 3.3 ± 0.5 min

## CN(CCOc1ccc(NS(C)(=O)=O)cc1)CCc1ccc(NS(C)(=O)=O)cc1 [dofetilide]
Rabbit Purkinje fibers [3]; [7]
  increase in APD90: 92%
  percentage increase in APD50: 86%
Rabbit Purkinje fibers [3]; dofetilide and DMSO
  Vmax: 253±48 V/s
Rabbit Purkinje fibers [4]; 10 nM, BCL=1000 ms
  increase of APD90: 83%

## CCN(CC)CC(=O)Nc1c(C)cccc1C [lidocaine]
hH1 sodium channel
  hH1 inhibition with longer prepulses (inactivated state inhibition): enhanced inhibition
[5]
  termination of EADs induced by 300 nM dofetilide: terminated
[1]
  block of TTX-sensitive early current Iearly(TTX): 41±2.7%
  block of TTX-sensitive late current Ilate(TTX): 73±2.8%
  block of TTX-sensitive sustained current Isus(TTX): 70±2.5%

## C=C[C@H]1C[N@@]2CC[C@H]1C[C@@H]2[C@@H](O)c1ccnc2ccc(OC)cc12 [quinidine]
Rabbit Purkinje fibers [4]; 10 μM
  increase of APD90: 93%
